Source: ChEMBL document CHEMBL4024741, “A minimalistic tetrapeptide amphiphile scaffold for transmembrane pores with a preference for sodium” (Bioorg Med Chem Lett, 2017)
Calls of active or inactive are those of the source. The rule behind the calls is not given here.

Tests used:
[1] = Binding affinity to potassium ion in HPTS dye encapsulated EPYC/cholesterol vesicles assessed as increase in internal pH at 5 mol% of lipid after 2 mins in presence of KOH loaded external vesicles by fluorescence spectroscopic analysis (reference value: 5.6 +/- 1.2 10^-3/s)
[2] = Binding affinity to sodium ion in HPTS dye encapsulated EPYC/cholesterol vesicles assessed as increase in internal pH at 5 mol% of lipid after 2 mins in presence of NaOH loaded external vesicles by fluorescence spectroscopic analysis (reference value: 5.6 +/- 1.2 10^-3/s)
[3] = Binding affinity to lithium ion in HPTS dye encapsulated EPYC/cholesterol vesicles assessed as increase in internal pH at 5 mol% of lipid after 2 mins in presence of LiOH loaded external vesicles by fluorescence spectroscopic analysis (reference value: 5.6 +/- 1.2 10^-3/s)
[4] = Effect on membrane integrity in EYPC/cholesterol vesicles at 40 uM by dynamic light scattering method; assay type: ADME
[5] = Binding affinity to potassium ion in 1,2-diphytanoyl-sn-glycero-3-phosphocholine based bilayer membrane assessed as increase in membrane current at 0.1 mg/ml in presence of KCl loaded cis membrane
[6] = Binding affinity to sodium ion in lucigenin/NaCl encapsulated EPYC/cholesterol vesicle by fluorescence spectroscopic method
[7] = Binding affinity to potassium ion in 1,2-diphytanoyl-sn-glycero-3-phosphocholine based bilayer membrane assessed as reversal of membrane potential at 0.1 mg/ml in presence of KCl loaded cis membrane
[8] = Binding affinity to sodium ion in lucigenin/NaCl encapsulated EPYC/cholesterol vesicle at 10 mol% of lipid by fluorescence spectroscopic method
[9] = Binding affinity to sodium ion in HPTS dye encapsulated EPYC/cholesterol vesicles assessed as increase in internal pH at 20 uM after 2 mins in presence of NaOH loaded external vesicles by fluorescence spectroscopic analysis

K [1] [×10⁻³ /s] | K [2] [×10⁻³ /s] | K [3] [×10⁻³ /s] | Activity [5] [pA] | EC50 [6] [mol%] | Activity [7] [mV] | K [8] [×10⁻³ /s] | Activity [9] | Compound | Activity [4]
15.3 | 12.4 | 14.3 | – | – | – | – | – | CCCCCCCCCCCCCC(=O)N[C@@H](C)C(=O)N[C@H](C)C(=O)N[C@@H](C)C(=O)Nc1cccc(C(=O)OC)n1 | Non-Toxic
15.8 | 28.9 | 17.5 | 30 | 0.94 | -10.8 | 9.7 | – | CCCCCCCCCCCCCC(=O)N[C@@H](C)C(=O)N[C@H](C)C(=O)N[C@@H](C)C(=O)Nc1cccc(C(=O)OCCOCCOCC)n1 | Non-Toxic
– | – | – | 40 | – | -14.9 | – | Active | CCCCCCCCCCCCCC(=O)N[C@@H](C)C(=O)Nc1cccc(C(=O)N[C@@H](C)C(=O)N[C@H](C)C(=O)OCCOCCOCC)n1 | Non-Toxic
